Each structure is given as a SMILES string.

Chain of human SPR (P35270 whole entry): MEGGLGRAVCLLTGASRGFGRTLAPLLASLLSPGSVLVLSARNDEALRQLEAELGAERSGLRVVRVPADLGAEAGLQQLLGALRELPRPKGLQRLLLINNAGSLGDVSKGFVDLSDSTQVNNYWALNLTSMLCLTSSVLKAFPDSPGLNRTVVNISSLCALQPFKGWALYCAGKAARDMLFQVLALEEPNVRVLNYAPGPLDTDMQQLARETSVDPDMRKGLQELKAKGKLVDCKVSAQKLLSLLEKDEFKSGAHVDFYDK

One assay addresses human SPR (Homo sapiens (Human), UniProt P35270). Nature of the assay: Evaluation Example 2: Measurement of human SPR inhibitory activity (seven concentrations, sepiapterin absorbance at 420 nm). The assay is classed as biochemical. The following applies: Evaluation Example 2, seven concentrations 0.14 nM to 100 nM, 240 minutes at room temperature, read-out: IC50. The method in brief:
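His-tagged full-length human SPR (1-261) was expressed in E. coli and the tag removed. Enzyme at 150 ng/mL in 100 mM Tris-HCl pH 7.5/0.01% BSA was mixed with compound (0.14–100 nM, seven points), 120 μM sepiapterin and 160 μM NADPH, both as added-solution concentrations. After 240 min at room temperature, remaining sepiapterin was read at 420 nm to give percent inhibition.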
Regarding `CC(C)Cn1c(=O)c(C(=O)NC2CC2)c(O)n2nc(NC(=O)OC(C)(C)C)c(/C=C/C(=O)N3CCC(F)(F)CC3)c12` [Synthesis Example 413, Tert-butyl (E)-(6-(cyclopropylcarbamoyl)-3-(3-(4,4-difluoropiperidin-1-yl)-3-oxoprop-1-en-1-yl)-7-hydroxy-4-isobutyl-5-oxo-4,5-dihydropyrazolo[1,5-a]pyrimidin-2-yl)carbamate], the IC50 turned out to be 1.32 nM.

On to `CC(C)Cn1c(=O)c(C(=O)NC2CC2)c(O)n2ncc(C(=O)NCC3CC(F)(F)C3)c12` [Synthesis Example 222, N6-Cyclopropyl-N3-((3,3-difluorocyclobutyl)methyl)-7-hydroxy-4-isobutyl-5-oxo-4,5-dihydropyrazolo[1,5-a]pyrimidine-3,6-dicarboxamide], for which the IC50 stood at 0.79 nM.

As to `CCc1nn2c(O)c(C(=O)NC3CC3)c(=O)n(CC(C)C)c2c1/C=C/C(=O)N1CCOC[C@@H]1C` [Synthesis Example 653, (S,E)-N-Cyclopropyl-2-ethyl-7-hydroxy-4-isobutyl-3-(3-(3-methylmorpholino)-3-oxoprop-1-en-1-yl)-5-oxo-4,5-dihydropyrazolo[1,5-a]pyrimidine-6-carboxamide], the IC50 turned out to be 0.74 nM.

As for `Cc1nn2c(O)c(C(=O)NC3CC3)c(=O)n(CC(C)C)c2c1/C=C/C(=O)N1CC2C(C1)C2(F)F` (stereo not drawn) [compound 608, (E)-N-Cyclopropyl-3-(3-(6,6-difluoro-3-azabicyclo[3.1.0]hexan-3-yl)-3-oxoprop-1-en-1-yl)-7-hydroxy-4-isobutyl-2-methyl-5-oxo-4,5-dihydropyrazolo[1,5-a]pyrimidine-6-carboxamide], the IC50 is 1.07 nM.

Consider `CC(C)Cn1c(=O)c(C(=O)NC2CC2)c(O)n2ncc(/C=C/C(C)(C)C)c12` [Synthesis Example 243, (E)-N-Cyclopropyl-3-(3,3-dimethylbut-1-en-1-yl)-7-hydroxy-4-isobutyl-5-oxo-4,5-dihydropyrazolo[1,5-a]pyrimidine-6-carboxamide], for which the IC50 was determined as 1.58 nM.

Turning to `CC(C)(C)Cn1c(=O)c(C(=O)NC2CC2)c(O)n2nc(-c3cccnc3N)c(Br)c12` [compound 448, 2-(2-Aminopyridin-3-yl)-3-bromo-N-cyclopropyl-7-hydroxy-4-neopentyl-5-oxo-4,5-dihydropyrazolo[1,5-a]pyrimidine-6-carboxamide], the IC50 was 8.22 nM.

For `CC(C)Cn1c(=O)c(C(=O)NC2CC2)c(O)n2ncc(/C=C/C3CCOCC3)c12` [Synthesis Example 237, (E)-N-Cyclopropyl-7-hydroxy-4-isobutyl-5-oxo-3-(2-(tetrahydro-2H-pyran-4-yl)vinyl)-4,5-dihydropyrazolo[1,5-a]pyrimidine-6-carboxamide], the IC50 was 0.91 nM.

In the case of `COC[C@@H]1CCCN1C(=O)/C=C/c1cnn2c(O)c(C(=O)NC3CC3)c(=O)n(CC(C)C)c12` [compound 549, (S,E)-N-Cyclopropyl-7-hydroxy-4-isobutyl-3-(3-(2-(methoxymethyl)pyrrolidine-1-yl)-3-oxoprop-1-en-1-yl)-5-oxo-4,5-dihydropyrazolo[1,5-a]pyrimidine-6-carboxamide], the IC50 amounted to 0.73 nM.

For the molecule `CC(C)(C)Cn1c(=O)c(C(=O)NC2CC2)c(O)n2nc3c(c12)CCC(=O)N3` [Synthesis Example 403, N-Cyclopropyl-4-hydroxy-1-neopentyl-2,8-dioxo-1,2,7,8,9,10-hexahydropyrido[2′,3′:3,4]pyrazolo[1,5-a]pyrimidine-3-carboxamide], the IC50 came out at 0.61 nM.

On to `Cc1cnc(Nc2cc3n(CC(C)(C)C)c(=O)c(C(=O)NC4CC4)c(O)n3n2)cn1` [Synthesis Example 333, N-Cyclopropyl-7-hydroxy-2-((5-methylpyrazin-2-yl)amino)-4-neopentyl-5-oxo-4,5-dihydropyrazolo[1,5-a]pyrimidine-6-carboxamide], for which the IC50 is 1.86 nM.

Take `CC(C)Cn1c(=O)c(C(=O)NC2CC2)c(O)n2ncc(/C=C/C(=O)N3CCC[C@H]3CO)c12` [compound 510, (S,E)-N-Cyclopropyl-7-hydroxy-3-(3-(2-(hydroxymethyl)pyrrolidin-1-yl)-3-oxoprop-1-en-1-yl)-4-isobutyl-5-oxo-4,5-dihydropyrazolo[1,5-a]pyrimidine-6-carboxamide]: the IC50 was 0.85 nM.

On to `Cc1nn2c(O)c(C(=O)NC3CC3)c(=O)n(CC(C)C)c2c1/C=C/C(=O)N1CCOCC1(C)C` [Synthesis Example 656, (E)-N-Cyclopropyl-3-(3-(3,3-dimethylmorpholino)-3-oxoprop-1-en-1-yl)-7-hydroxy-4-isobutyl-2-methyl-5-oxo-4,5-dihydropyrazolo[1,5-a]pyrimidine-6-carboxamide], for which the IC50 is 1.15 nM.

Consider `CC(C)(C)Cn1c(=O)c(C(=O)NC2CC2)c(O)n2nc(Nc3cnc(C#N)cn3)cc12` [Synthesis Example 323, 2-((5-Cyanopyrazin-2-yl)amino)-N-cyclopropyl-7-hydroxy-4-neopentyl-5-oxo-4,5-dihydropyrazolo[1,5-a]pyrimidine-6-carboxamide], for which the IC50 came out at 1.2 nM.

For `Cc1nn2c(O)c(C(=O)NC3CC3)c(=O)n(CC(C)C)c2c1/C=C/C(=O)N1CC[C@H](C(C)(C)O)C1` [Synthesis Example 623, (S,E)-N-Cyclopropyl-7-hydroxy-3-(3-(3-(2-hydroxypropan-2-yl)pyrrolidine-1-yl)-3-oxoprop-1-en-1-yl)-4-isobutyl-2-methyl-5-oxo-4,5-dihydropyrazolo[1,5-a]pyrimidine-6-carboxamide], the IC50 is 1.27 nM.

Consider `CC(C)Cn1c(=O)c(C(=O)NC2CC2)c(O)n2ncc(/C=C/C(=O)N3CCN(C(C)C)CC3)c12` [compound 462, (E)-N-Cyclopropyl-7-hydroxy-4-isobutyl-3-(3-(4-isopropylpiperazin-1-yl)-3-oxoprop-1-en-1-yl)-5-oxo-4,5-dihydropyrazolo[1,5-a]pyrimidine-6-carboxamide], for which the IC50 was determined as 0.96 nM.

Consider `CC(C)Cn1c(=O)c(C(=O)NC2CC2)c(O)n2ncc(/C=C/C(=O)N3CCC(C)(O)C3)c12` (racemic) [compound 500, (E)-N-Cyclopropyl-7-hydroxy-3-(3-(3-hydroxy-3-methylpyrrolidin-1-yl)-3-oxoprop-1-en-1-yl)-4-isobutyl-5-oxo-4,5-dihydropyrazolo[1,5-a]pyrimidine-6-carboxamide (racemate)], for which the IC50 is 0.88 nM.

Turning to `CC(C)Cn1c(=O)c(C(=O)NC2CC2)c(O)n2ncc(/C=C/C(=O)NC3(C)CCOCC3)c12` [compound 492, (E)-N-Cyclopropyl-7-hydroxy-4-isobutyl-3-(3-((4-methyltetrahydro-2H-pyran-4-yl)amino)-3-oxoprop-1-en-1-yl)-5-oxo-4,5-dihydropyrazolo[1,5-a]pyrimidine-6-carboxamide], the IC50 was 0.89 nM.

As for `Cc1nn2c(O)c(C(=O)NC3CC3)c(=O)n(CC(C)(C)C)c2c1/C=C/C(=O)N1CCOC[C@@H]1C` [Synthesis Example 625, (S,E)-N-Cyclopropyl-7-hydroxy-2-methyl-3-(3-(3-methylmorpholino)-3-oxoprop-1-en-1-yl)-4-neopentyl-5-oxo-4,5-dihydropyrazolo[1,5-a]pyrimidine-6-carboxamide], the IC50 came out at 1.05 nM.

For the molecule `Cc1nn2c(O)c(C(=O)NC3CC3)c(=O)n(CC(C)C)c2c1/C=C/C(=O)N1CCC[C@H]1C(C)C` [Synthesis Example 630, (S,E)-N-Cyclopropyl-7-hydroxy-4-isobutyl-3-(3-(2-isopropylpyrrolidin-1-yl)-3-oxoprop-1-en-1-yl)-2-methyl-5-oxo-4,5-dihydropyrazolo[1,5-a]pyrimidine-6-carboxamide], the IC50 was 1.24 nM.

Consider `CC(C)(C)Cn1c(=O)c(C(=O)NC2CC2)c(O)n2nc(Nc3cnc(C(=O)N4CC[C@H](O)C4)cn3)cc12` [Synthesis Example 360, (S)-N-Cyclopropyl-7-hydroxy-2-((5-(3-hydroxypyrrolidine-1-carbonyl)pyrazin-2-yl)amino)-4-neopentyl-5-oxo-4,5-dihydropyrazolo[1,5-a]pyrimidine-6-carboxamide], for which the IC50 worked out at 0.76 nM.

Still in this assay, the particulars now being: sepiapterin absorbance, Table 41, read-out: concentration at 50% inhibition of human SPR (IC50).
Take `Cc1nn2c(O)c(C(=O)NC3CC3)c(=O)n(CC(C)C)c2c1/C=C/C(=O)N1CC[C@@H](C(C)(C)O)C1` [Synthesis Example 700, (R,E)-N-Cyclopropyl-7-hydroxy-3-(3-(3-(2-hydroxypropan-2-yl)pyrrolidin-1-yl)-3-oxoprop-1-en-1-yl)-4-isobutyl-2-methyl-5-oxo-4,5-dihydropyrazolo[1,5-a]pyrimidine-6-carboxamide]: the IC50 was 0.96 nM.

As for `COC[C@@H]1COCCN1C(=O)/C=C/c1c(C)nn2c(O)c(C(=O)NC3CC3)c(=O)n(CC(C)C)c12` [Synthesis Example 682, (R,E)-N-Cyclopropyl-7-hydroxy-4-isobutyl-3-(3-(3-(methoxymethyl)morpholino)-3-oxoprop-1-en-1-yl)-2-methyl-5-oxo-4,5-dihydropyrazolo[1,5-a]pyrimidine-6-carboxamide], the IC50 worked out at 0.85 nM.

As for `Cc1nn2c(O)c(C(=O)NC3CC3)c(=O)n(CC(C)C)c2c1/C=C/C(=O)N1CCN(CC(F)(F)F)CC1` [Synthesis Example 685, (E)-N-Cyclopropyl-7-hydroxy-4-isobutyl-2-methyl-5-oxo-3-(3-oxo-3-(4-(2,2,2-trifluoroethyl)piperazin-1-yl)prop-1-en-1-yl)-4,5-dihydropyrazolo[1,5-a]pyrimidine-6-carboxamide], the IC50 was 1.23 nM.

`COCCN(C)C(=O)/C=C/c1c(C)nn2c(O)c(C(=O)NC3CC3)c(=O)n(CC(C)C)c12` [Synthesis Example 750, (E)-N-Cyclopropyl-7-hydroxy-4-isobutyl-3-(3-((2-methoxyethyl)(methyl)amino)-3-oxoprop-1-en-1-yl)-2-methyl-5-oxo-4,5-dihydropyrazolo[1,5-a]pyrimidine-6-carboxamide]: the IC50 is 0.96 nM.
